From ChEMBL document CHEMBL4673225, “Highly Selective PTK2 Proteolysis Targeting Chimeras to Probe Focal Adhesion Kinase Scaffolding Functions” (J Med Chem, 2019)
The source made the active and inactive calls. No cut-off for these calls is given here.

Legend:
[1] = Permeability in human Caco-2 cells; assay type: ADME, cell-based
[2] = biological target: Retinal rod rhodopsin-sensitive cGMP 3',5'-cyclic phosphodiesterase subunit delta (Homo sapiens) (UniProt O43924); test: Induction of PDE6D degradation in human A549 cells at 100 nM to 10000 nM incubated for 18 hrs by immunoblot analysis based protein capillary electrophoresis; assay type: cell-based
CFPAC-1 = test: Antiproliferative activity against C32 in human CFPAC-1 cells at 3 uM incubated for 21 day; assay type: functional, cell-based
SK-HEP1 [3] = test: Antiproliferative activity against human SK-HEP1 cells incubated for 7 to 14 days by methylene blue dye based anchorage independent growth assay; assay type: functional, cell-based; settings: time 7-14 day
[4] = Fraction unbound in 10% FCS; assay type: ADME, cell-free, Bos taurus; settings: cattle, 10% fetal calf serum (FCS)
A549 [5] = test: Antiproliferative activity against C32 in human A549 cells at 3 uM incubated for 21 day; assay type: functional, cell-based
SNU-387 [6] = test: Antiproliferative activity against human SNU-387 cells incubated for 7 to 14 days by methylene blue dye based anchorage independent growth assay; assay type: functional, cell-based; settings: time 7-14 day
Focal adhesion kinase 1 [7] = biological target: T1, Focal adhesion kinase 1 (Homo sapiens, UniProt Q05397); test: Inhibition of PTK2 (unknown origin) at 1 uM relative to control
Target sequence in this assay (Q05397 2-1052 limits assumed): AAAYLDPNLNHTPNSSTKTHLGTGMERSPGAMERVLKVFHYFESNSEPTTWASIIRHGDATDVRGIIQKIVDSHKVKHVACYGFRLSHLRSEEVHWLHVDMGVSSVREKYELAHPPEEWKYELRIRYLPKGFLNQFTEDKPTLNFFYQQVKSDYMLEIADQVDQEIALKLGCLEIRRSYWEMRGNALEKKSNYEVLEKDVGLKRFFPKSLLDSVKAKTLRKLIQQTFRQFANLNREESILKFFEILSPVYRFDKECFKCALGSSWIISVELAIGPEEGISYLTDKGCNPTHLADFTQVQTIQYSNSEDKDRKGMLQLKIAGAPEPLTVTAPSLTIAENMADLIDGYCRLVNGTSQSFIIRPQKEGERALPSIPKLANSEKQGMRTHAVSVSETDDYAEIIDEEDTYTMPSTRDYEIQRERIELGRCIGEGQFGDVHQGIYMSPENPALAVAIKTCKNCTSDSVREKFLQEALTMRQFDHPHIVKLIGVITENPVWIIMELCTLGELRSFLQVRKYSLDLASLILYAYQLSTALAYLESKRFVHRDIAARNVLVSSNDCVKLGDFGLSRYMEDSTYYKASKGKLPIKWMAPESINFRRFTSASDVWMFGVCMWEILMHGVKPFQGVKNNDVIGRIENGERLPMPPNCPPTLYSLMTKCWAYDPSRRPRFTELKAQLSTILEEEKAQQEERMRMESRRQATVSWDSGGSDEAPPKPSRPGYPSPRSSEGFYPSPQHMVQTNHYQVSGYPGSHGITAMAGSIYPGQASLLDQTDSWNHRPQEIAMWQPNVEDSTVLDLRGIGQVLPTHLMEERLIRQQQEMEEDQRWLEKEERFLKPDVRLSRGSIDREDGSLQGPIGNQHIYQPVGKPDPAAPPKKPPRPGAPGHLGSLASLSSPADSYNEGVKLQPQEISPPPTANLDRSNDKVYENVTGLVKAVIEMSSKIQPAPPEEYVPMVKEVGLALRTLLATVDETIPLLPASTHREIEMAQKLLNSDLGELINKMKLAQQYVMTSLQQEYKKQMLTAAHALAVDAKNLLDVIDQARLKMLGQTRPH

HLF1 = test: Antiproliferative activity against human HLF1 cells incubated for 7 to 14 days by methylene blue dye based anchorage independent growth assay; assay type: functional, cell-based; settings: time 7-14 day
SNU-423 [8] = test: cells; settings: Homo sapiens, SNU-423, 144 h, read-out: pIC50 (converted)
Description: Antiproliferative activity against human SNU-423 cells incubated for 6 days by CellTiter-Glo luminescent cell viability assay

Hep3B = test: Antiproliferative activity against human Hep3B2.1-7 cells incubated for 7 to 14 days by methylene blue dye based anchorage independent growth assay; assay type: functional, cell-based; settings: time 7-14 day
Huh-7 [9] = test: Antiproliferative activity against human Huh-7 cells incubated for 7 to 14 days by methylene blue dye based anchorage independent growth assay; assay type: functional, cell-based; settings: time 7-14 day
HSC-3 = test: Antiproliferative activity against HSC-3 in human […] cells at 3 uM incubated for 21 days; assay type: functional, cell-based; settings: time 21.0 day
HuCCT-1 [10] = test: Antiproliferative activity against human HuCCT-1 cells incubated for 7 to 14 days by methylene blue dye based anchorage independent growth assay; assay type: functional, cell-based; settings: time 7-14 day
HuH-1 = test: Antiproliferative activity against human HuH-1 cells incubated for 7 to 14 days by methylene blue dye based anchorage independent growth assay; assay type: functional, cell-based; settings: time 7-14 day
cells [11] = settings: Homo sapiens, HLF1, 144 h, read-out: pIC50 (converted)
Description: Antiproliferative activity against human HLF1 cells incubated for 6 days by CellTiter-Glo luminescent cell viability assay

cells [12] = settings: Homo sapiens, Hep3B, 144 h, read-out: pIC50 (converted)
Description: Antiproliferative activity against human Hep3B2.1-7 cells incubated for 6 days by CellTiter-Glo luminescent cell viability assay

HepG2 [13] = test: Antiproliferative activity against human HepG2 cells incubated for 7 to 14 days by methylene blue dye based anchorage independent growth assay; assay type: functional, cell-based; settings: time 7-14 day
[14] = biological target: Retinal rod rhodopsin-sensitive cGMP 3',5'-cyclic phosphodiesterase subunit delta (Homo sapiens) (UniProt O43924); test: Induction of PDE6D degradation in human A549 cells at 3 uM incubated for 18 hrs by mass spectrometry based total proteome analysis; assay type: cell-based
[15] = biological target: T2, von Hippel-Lindau disease tumor suppressor/Focal adhesion kinase 1 (Homo sapiens, UniProt Q05397+P40337); test: Protac activity at VHL/PTK2 in human HuCCT-1 cells assessed as induction of PTK2 degradation incubated for 18 hrs by protein capillary electrophoresis method; assay type: cell-based
Target sequence in this assay (Q05397 whole entry): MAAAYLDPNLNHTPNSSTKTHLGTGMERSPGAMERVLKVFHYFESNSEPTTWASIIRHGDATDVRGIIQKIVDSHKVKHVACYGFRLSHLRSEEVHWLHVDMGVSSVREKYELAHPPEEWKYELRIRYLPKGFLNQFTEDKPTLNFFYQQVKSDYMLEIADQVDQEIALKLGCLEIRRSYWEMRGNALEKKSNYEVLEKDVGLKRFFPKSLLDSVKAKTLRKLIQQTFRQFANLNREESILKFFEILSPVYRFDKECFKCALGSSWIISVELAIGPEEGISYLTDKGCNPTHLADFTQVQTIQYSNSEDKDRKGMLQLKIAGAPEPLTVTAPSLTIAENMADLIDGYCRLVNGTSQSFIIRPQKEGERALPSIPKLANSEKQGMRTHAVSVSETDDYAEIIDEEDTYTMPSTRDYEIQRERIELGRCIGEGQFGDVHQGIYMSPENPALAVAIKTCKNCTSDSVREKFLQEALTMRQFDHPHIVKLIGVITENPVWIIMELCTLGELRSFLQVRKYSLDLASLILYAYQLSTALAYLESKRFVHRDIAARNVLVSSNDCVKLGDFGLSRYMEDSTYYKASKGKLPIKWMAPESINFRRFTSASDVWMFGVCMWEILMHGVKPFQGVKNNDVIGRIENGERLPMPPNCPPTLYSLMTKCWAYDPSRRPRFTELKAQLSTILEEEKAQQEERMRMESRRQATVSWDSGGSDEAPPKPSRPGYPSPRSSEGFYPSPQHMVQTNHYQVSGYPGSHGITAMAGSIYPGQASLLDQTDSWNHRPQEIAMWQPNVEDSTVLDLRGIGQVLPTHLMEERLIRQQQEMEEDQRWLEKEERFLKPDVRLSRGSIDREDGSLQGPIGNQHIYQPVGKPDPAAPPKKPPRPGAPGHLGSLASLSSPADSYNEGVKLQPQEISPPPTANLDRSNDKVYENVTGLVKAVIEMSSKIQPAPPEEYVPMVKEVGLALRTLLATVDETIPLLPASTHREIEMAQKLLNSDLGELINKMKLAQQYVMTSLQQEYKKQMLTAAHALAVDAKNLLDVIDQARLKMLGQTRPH
Target sequence in this assay (P40337 whole entry): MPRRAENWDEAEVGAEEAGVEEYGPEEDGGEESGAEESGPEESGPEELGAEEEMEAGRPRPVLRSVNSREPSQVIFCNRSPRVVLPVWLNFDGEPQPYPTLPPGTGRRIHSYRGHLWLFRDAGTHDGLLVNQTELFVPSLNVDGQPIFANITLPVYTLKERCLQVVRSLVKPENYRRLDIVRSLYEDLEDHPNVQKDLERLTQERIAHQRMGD

Huh-7 [16] = test: cells; settings: Homo sapiens, Huh-7, 144 h, read-out: pIC50 (converted)
Description: Antiproliferative activity against human Huh-7 cells incubated for 6 days by CellTiter-Glo luminescent cell viability assay

A549 [17] = test: Induction of general kinase degradation in human A549 cells at 3 uM incubated for 18 hrs by mass spectrometry based total proteome analysis; assay type: functional, cell-based
SNU-423 [18] = test: Antiproliferative activity against human SNU-423 cells incubated for 7 to 14 days by methylene blue dye based anchorage independent growth assay; assay type: functional, cell-based; settings: time 7-14 day
HLE [19] = test: cells; settings: Homo sapiens, 144 h, read-out: pIC50 (converted)
Description: Antiproliferative activity against human HLE cells incubated for 6 days by CellTiter-Glo luminescent cell viability assay

[20] = biological target: T2, von Hippel-Lindau disease tumor suppressor/Focal adhesion kinase 1; test: Protac activity at VHL/PTK2 in human A549 cells assessed as time required for maximal induction of PTK2 degradation at 3 uM by protein capillary electrophoresis method; assay type: cell-based
Target sequence in this assay (P40337 whole entry partner): as the sequence (P40337 whole entry) above
Target sequence in this assay (Q05397 2-1052 limits assumed): as the sequence (Q05397 2-1052 limits assumed) above

[21] = biological target: T2, von Hippel-Lindau disease tumor suppressor/Focal adhesion kinase 1; test: Protac activity at VHL/PTK2 in human Hep3B2.1-7 cells assessed as induction of PTK2 degradation incubated for 18 hrs by protein capillary electrophoresis method relative to control; assay type: cell-based; settings: Hep3B
Target sequence in this assay (P40337 whole entry partner): as the sequence (P40337 whole entry) above
Target sequence in this assay (Q05397 2-1052 limits assumed): as the sequence (Q05397 2-1052 limits assumed) above

SNU-387 [22] = test: cells; settings: Homo sapiens, SNU-387, 144 h, read-out: pIC50 (converted)
Description: Antiproliferative activity against human SNU-387 cells incubated for 6 days by CellTiter-Glo luminescent cell viability assay

cells [23] = settings: Homo sapiens, HuH-1, 144 h, read-out: pIC50 (converted)
Description: Antiproliferative activity against human HuH-1 cells incubated for 6 days by CellTiter-Glo luminescent cell viability assay

SNU-398 [24] = test: Antiproliferative activity against human SNU-398 cells incubated for 7 to 14 days by methylene blue dye based anchorage independent growth assay; assay type: functional, cell-based; settings: time 7-14 day
[25] = biological target: T2, von Hippel-Lindau disease tumor suppressor/Focal adhesion kinase 1; test: Protac activity at VHL/PTK2 in human HepG2 cells assessed as induction of PTK2 degradation incubated for 18 hrs by protein capillary electrophoresis method relative to control; assay type: cell-based
Target sequence in this assay (P40337 whole entry partner): as the sequence (P40337 whole entry) above
Target sequence in this assay (Q05397 2-1052 limits assumed): as the sequence (Q05397 2-1052 limits assumed) above

HepG2 [26] = test: cells; settings: Homo sapiens, HepG2, 144 h, read-out: pIC50 (converted)
Description: Antiproliferative activity against human HepG2 cells incubated for 6 days by CellTiter-Glo luminescent cell viability assay

HLE [27] = test: Antiproliferative activity against human HLE cells incubated for 7 to 14 days by methylene blue dye based anchorage independent growth assay; assay type: functional, cell-based; settings: time 7-14 day
Focal adhesion kinase 1 [28] = biological target: T1, Focal adhesion kinase 1; test: Inhibition of human PTK2 (411-689 residues) expressed in Hi-5 cells
Target sequence in this assay (Q05397 whole entry): as the sequence (Q05397 whole entry) above

[29] = biological target: Tyrosine-protein kinase Fes/Fps (Homo sapiens) (UniProt P07332); test: Inhibition of FES (unknown origin) at 1 uM relative to control
C32 = test: Antiproliferative activity against C32 in human […] cells at 3 uM incubated for 21 days; assay type: functional, cell-based; settings: time 21.0 day
[30] = biological target: T2, von Hippel-Lindau disease tumor suppressor/Focal adhesion kinase 1; test: Protac activity at VHL/PTK2 in human SNU-387 cells assessed as induction of PTK2 degradation incubated for 18 hrs by protein capillary electrophoresis method relative to control; assay type: cell-based
Target sequence in this assay (P40337 whole entry partner): as the sequence (P40337 whole entry) above
Target sequence in this assay (Q05397 2-1052 limits assumed): as the sequence (Q05397 2-1052 limits assumed) above

HuCCT-1 [31] = test: cells; settings: Homo sapiens, HuCCT-1, 144 h, read-out: pIC50 (converted)
Description: Antiproliferative activity against human HuCCT-1 cells incubated for 6 days by CellTiter-Glo luminescent cell viability assay

SK-HEP1 [32] = test: cells; settings: Homo sapiens, SK-HEP1, 144 h, read-out: pIC50 (converted)
Description: Antiproliferative activity against human SK-HEP1 cells incubated for 6 days by CellTiter-Glo luminescent cell viability assay

SNU-398 [33] = test: cells; settings: Homo sapiens, SNU-398, 144 h, read-out: pIC50 (converted)
Description: Antiproliferative activity against human SNU-398 cells incubated for 6 days by CellTiter-Glo luminescent cell viability assay

[34] = Stability in EMEM cell assay buffer containing 10% FCS; assay type: physicochemical; settings: cattle
[35] = biological target: T3, Protein cereblon/Focal adhesion kinase 1 (Homo sapiens, UniProt Q05397+Q96SW2); test: Protac activity at CRBN/PTK2 in human A549 cells assessed as induction of PTK2 degradation incubated for 18 hrs by protein capillary electrophoresis method; assay type: cell-based
Target sequence in this assay (Q05397 whole entry): as the sequence (Q05397 whole entry) above
Target sequence in this assay (Q96SW2 whole entry): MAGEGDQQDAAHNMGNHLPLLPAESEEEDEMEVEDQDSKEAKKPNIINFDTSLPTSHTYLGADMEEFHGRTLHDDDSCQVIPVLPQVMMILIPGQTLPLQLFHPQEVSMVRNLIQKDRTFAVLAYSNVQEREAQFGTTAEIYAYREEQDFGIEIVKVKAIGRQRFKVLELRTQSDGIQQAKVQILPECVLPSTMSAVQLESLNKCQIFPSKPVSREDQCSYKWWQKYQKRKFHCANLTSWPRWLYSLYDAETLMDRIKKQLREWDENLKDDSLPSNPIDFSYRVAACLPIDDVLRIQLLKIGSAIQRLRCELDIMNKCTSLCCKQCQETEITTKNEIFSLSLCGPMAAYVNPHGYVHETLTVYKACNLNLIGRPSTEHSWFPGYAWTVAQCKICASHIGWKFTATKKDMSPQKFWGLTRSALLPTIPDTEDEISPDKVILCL

[36] = biological target: T3, Protein cereblon/Focal adhesion kinase 1; test: Protac activity at CRBN/PTK2 in human SNU-398 cells assessed as induction of PTK2 degradation incubated for 18 hrs by protein capillary electrophoresis method relative to control; assay type: cell-based
Target sequence in this assay (Q05397 2-1052 limits assumed): as the sequence (Q05397 2-1052 limits assumed) above
Target sequence in this assay (Q96SW2 whole entry partner): as the sequence (Q96SW2 whole entry) above

[37] = biological target: T3, Protein cereblon/Focal adhesion kinase 1; test: Protac activity at CRBN/PTK2 in human SK-HEP1 cells assessed as induction of PTK2 degradation incubated for 18 hrs by protein capillary electrophoresis method; assay type: cell-based
Target sequence in this assay (Q05397 whole entry): as the sequence (Q05397 whole entry) above
Target sequence in this assay (Q96SW2 whole entry): as the sequence (Q96SW2 whole entry) above

Retinal rod rhodopsin-sensitive cGMP 3',5'-cyclic phosphodiesterase subunit delta (Homo sapiens), sequence (O43924 whole entry): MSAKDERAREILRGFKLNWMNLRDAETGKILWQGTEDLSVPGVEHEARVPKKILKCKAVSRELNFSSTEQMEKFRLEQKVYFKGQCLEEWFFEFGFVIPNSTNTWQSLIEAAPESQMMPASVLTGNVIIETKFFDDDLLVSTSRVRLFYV
Tyrosine-protein kinase Fes/Fps (Homo sapiens), sequence (P07332 whole entry): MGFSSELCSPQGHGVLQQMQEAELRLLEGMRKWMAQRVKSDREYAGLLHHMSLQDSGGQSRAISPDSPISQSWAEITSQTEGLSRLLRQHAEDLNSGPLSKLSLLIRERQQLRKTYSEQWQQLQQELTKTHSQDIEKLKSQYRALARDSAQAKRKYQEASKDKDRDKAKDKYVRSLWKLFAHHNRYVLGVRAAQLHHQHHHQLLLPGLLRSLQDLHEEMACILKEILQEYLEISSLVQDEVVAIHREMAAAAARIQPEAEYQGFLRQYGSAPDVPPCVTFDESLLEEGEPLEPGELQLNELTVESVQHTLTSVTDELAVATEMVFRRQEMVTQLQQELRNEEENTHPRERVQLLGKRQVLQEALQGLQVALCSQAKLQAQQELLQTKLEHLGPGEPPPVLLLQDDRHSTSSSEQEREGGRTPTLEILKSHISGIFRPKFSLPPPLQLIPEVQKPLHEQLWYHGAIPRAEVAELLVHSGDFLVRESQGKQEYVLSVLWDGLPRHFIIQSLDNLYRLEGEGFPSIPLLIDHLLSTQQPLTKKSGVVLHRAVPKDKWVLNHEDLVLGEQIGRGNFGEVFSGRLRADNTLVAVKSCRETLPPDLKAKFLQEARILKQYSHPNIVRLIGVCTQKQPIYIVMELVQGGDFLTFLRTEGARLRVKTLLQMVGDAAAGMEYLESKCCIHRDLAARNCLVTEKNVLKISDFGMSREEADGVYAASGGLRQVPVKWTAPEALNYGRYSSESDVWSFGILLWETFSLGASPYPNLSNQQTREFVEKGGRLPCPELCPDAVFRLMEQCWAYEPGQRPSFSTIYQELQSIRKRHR

In the case of `COc1cc(C(=O)NCCOCCOCCOCC(=O)N[C@H](C(=O)N2C[C@H](O)C[C@H]2C(=O)NCc2ccc(-c3scnc3C)cc2)C(C)(C)C)ccc1Nc1ncc(C(F)(F)F)c(Oc2cccc3c2C(=O)CC3)n1`, the permeability [1] is reported as “Impermeable”, the Activity [2] is reported as “Active” and the Activity (CFPAC-1) is reported as “inactive”. The Activity (SK-HEP1 [3]) was “inactive”, the fraction unbound [4] was 0.113 and the Activity (A549 [5]) was “inactive”. The Activity (SNU-387 [6]) was “inactive”, the inhibition (Focal adhesion kinase 1 [7]) was greater than 90% and the Activity (HLF1) was “inactive”. The IC50 (SNU-423 [8]) was 6.31 µM, the Activity (Hep3B) was “inactive” and the Activity (Huh-7 [9]) was “inactive”. The Activity (HSC-3) was “inactive”, the Activity (HuCCT-1 [10]) was “inactive” and the Activity (HuH-1) was “inactive”. For the same compound, the IC50 (cells [11]) was greater than 25.1 µM, the IC50 (cells [12]) was 6.31 µM and the Activity (HepG2 [13]) was “inactive”. For the same compound, the Activity [14] was “Active”, the pDC50 [15] was 6.9 and the IC50 (Huh-7 [16]) was 3.98 µM. For the same compound, the Activity (A549 [17]) was “inactive”, the Activity (SNU-423 [18]) was “inactive” and the IC50 (HLE [19]) was 10 µM. The TIME [20] was 72 h, the Emax [21] was 59% and the IC50 (SNU-387 [22]) was 5.01 µM. For the same compound, the IC50 (cells [23]) was 20 µM, the Activity (SNU-398 [24]) was “inactive” and the Emax [25] was 65%. The IC50 (HepG2 [26]) was greater than 25.1 µM, the Activity (HLE [27]) was “inactive” and the IC50 (Focal adhesion kinase 1 [28]) was 0.019 µM. For the same compound, the inhibition [29] was greater than 90%, the Activity (C32) was “inactive” and the Emax [30] was 98%. It also gave an IC50 (HuCCT-1 [31]) of 6.31 µM, an IC50 (SK-HEP1 [32]) of 7.94 µM and an IC50 (SNU-398 [33]) of 7.94 µM. The Stabilty [34] was “Stable”.

In the case of `COc1cc(C(=O)NCCOCCOCCOCCC(=O)Nc2cccc3c2C(=O)N(C2CCC(=O)NC2=O)C3=O)ccc1Nc1ncc(C(F)(F)F)c(Oc2cccc3c2C(=O)CC3)n1` (stereo unspecified), the permeability [1] is reported as “Impermeable”, the Activity [2] is reported as “inactive” and the Activity (CFPAC-1) is reported as “inactive”. For the same compound, the Activity (SK-HEP1 [3]) was “inactive”, the fraction unbound [4] was 0.04 and the Activity (A549 [5]) was “inactive”. For the same compound, the Activity (SNU-387 [6]) was “inactive”, the Activity (HLF1) was “inactive” and the IC50 (SNU-423 [8]) was 20 µM. For the same compound, the Activity (Hep3B) was “inactive”, the Activity (Huh-7 [9]) was “inactive” and the Activity (HSC-3) was “inactive”. For the same compound, the Activity (HuCCT-1 [10]) was “inactive”, the Activity (HuH-1) was “inactive” and the IC50 (cells [11]) was greater than 25.1 µM. For the same compound, the IC50 (cells [12]) was 25.1 µM, the Activity (HepG2 [13]) was “inactive” and the Activity [14] was “inactive”. For the same compound, the IC50 (Huh-7 [16]) was greater than 25.1 µM, the Activity (A549 [17]) was “inactive” and the Activity (SNU-423 [18]) was “inactive”. It also gave a pDC50 [35] of 7.6, an IC50 (HLE [19]) greater than 25.1 µM and an IC50 (SNU-387 [22]) greater than 25.1 µM. For the same compound, the IC50 (cells [23]) was 25.1 µM, the Activity (SNU-398 [24]) was “inactive” and the Emax [36] was 95%. The pDC50 [37] was 7.5, the IC50 (HepG2 [26]) was greater than 25.1 µM and the Activity (HLE [27]) was “inactive”. For the same compound, the IC50 (Focal adhesion kinase 1 [28]) was 0.018 µM, the Activity (C32) was “inactive” and the IC50 (HuCCT-1 [31]) was greater than 25.1 µM. The IC50 (SK-HEP1 [32]) was 1.58 µM, the IC50 (SNU-398 [33]) was greater than 25.1 µM and the Stabilty [34] was “Unstable”.
